The results in this text go back to patent publication US8067454B2, “Thio-substituted Anthra [1, 2-d] imidazole- 6, 11-dione derivatives, preparation method and application thereof” (National Defense Medical Center, priority 2010, dated 2011).

The structures appear in SMILES notation.

One test concerns CCRF-CEM. As to the kind of experiment: NCI 60-cell drug screen, Leukemia CCRF-CEM. It counts as cell-based, human. The note with it: 1.00E−5 Molar.
The next test deals with K-562. As to the kind of experiment: NCI 60-cell drug screen, Leukemia K-562. To be noted: 1.00E−5 Molar. It counts as cell-based, human.
The test system of the next test is SR. In words: NCI 60-cell drug screen, Leukemia SR. To be noted: 1.00E−5 Molar. It counts as cell-based, human.
Another test concerns EKVX. In words: NCI 60-cell drug screen, Non-Small Cell Lung Cancer EKVX. It counts as cell-based, human. The note with it: 1.00E−5 Molar.
Another test deals with NCI-H226. In words: NCI 60-cell drug screen, Non-Small Cell Lung Cancer NCI-H226. It counts as cell-based, human. To be noted: 1.00E−5 Molar.
In the next test the test system is NCI-H322M. In words: NCI 60-cell drug screen, Non-Small Cell Lung Cancer NCI-H322M. It counts as cell-based, human. To be noted: 1.00E−5 Molar.
In a further test the test system is NCI-H460. In words: NCI 60-cell drug screen, Non-Small Cell Lung Cancer NCI-H460. It counts as cell-based, human. The note with it: 1.00E−5 Molar.
For the next test, the system named is COLO 205. As to the kind of experiment: NCI 60-cell drug screen, Colon Cancer COLO 205. It counts as cell-based, human. The note with it: 1.00E−5 Molar.
The test system of another test is HCT-116. In words: NCI 60-cell drug screen, Colon Cancer HCT-116. To be noted: 1.00E−5 Molar. It counts as cell-based, human.
In a further test the test system is HT29. In words: NCI 60-cell drug screen, Colon Cancer HT29. It counts as cell-based, human. To be noted: 1.00E−5 Molar.
For a further test, the system named is KM12. As to the kind of experiment: NCI 60-cell drug screen, Colon Cancer KM12. It counts as cell-based, human. The note with it: 1.00E−5 Molar.
The subject of a further test is SF-539. In words: NCI 60-cell drug screen, CNS Cancer SF-539. It counts as cell-based, human. The note with it: 1.00E−5 Molar.
The test system of another test is SNB-75. In words: NCI 60-cell drug screen, CNS Cancer SNB-75. It counts as cell-based, human. To be noted: 1.00E−5 Molar.
The subject of another test is MDA-MB-435. As to the kind of experiment: NCI 60-cell drug screen, Melanoma MDA-MB-435. To be noted: 1.00E−5 Molar. It counts as cell-based, human.
The subject of the next test is SK-MEL-5. In words: NCI 60-cell drug screen, Melanoma SK-MEL-5. The note with it: 1.00E−5 Molar. It counts as cell-based, human.
The next test has as its system IGROV1. As to the kind of experiment: NCI 60-cell drug screen, Ovarian Cancer IGROV1. It counts as cell-based, human. To be noted: 1.00E−5 Molar.
In another test the test system is OVCAR-3. In words: NCI 60-cell drug screen, Ovarian Cancer OVCAR-3. It counts as cell-based, human. The note with it: 1.00E−5 Molar.
The next test concerns CAKI-1. As to the kind of experiment: NCI 60-cell drug screen, Renal Cancer CAKI-1. It counts as cell-based, human. The note with it: 1.00E−5 Molar.
The next test has as its system TK-10. In words: NCI 60-cell drug screen, Renal Cancer TK-10. It counts as cell-based, human. To be noted: 1.00E−5 Molar.
The subject of the next test is MDA-MB-231/ATCC. As to the kind of experiment: NCI 60-cell drug screen, Breast Cancer MDA-MB-231/ATCC. To be noted: 1.00E−5 Molar. It counts as cell-based, human.
The next test deals with HS 578T. As to the kind of experiment: NCI 60-cell drug screen, Breast Cancer HS 578T. It counts as cell-based, human. The note with it: 1.00E−5 Molar.
The test system of the next test is BT-549. In words: NCI 60-cell drug screen, Breast Cancer BT-549. To be noted: 1.00E−5 Molar. It counts as cell-based, human.
Test [1] has as its system 60 kinds of different human cancer cells. As to the kind of experiment: NCI 60-cell drug screen, whole panel (One Dose Mean Graph). It counts as cell-based. The note with it: mean over the cell lines of the panel; 1.00E−5 Molar.
The test system of a further test is SVG p12. As to the kind of experiment: MTT assay, SVG p12 normal cell. The note with it: concentration 10 μM, normal cell. A general note: Formazan colour is commonly taken as a measure of viable cells.
The subject of the next test is MDA-MB-468. In words: NCI 60-cell drug screen, Breast Cancer MDA-MB-468. It counts as cell-based, human. To be noted: 1.00E−5 Molar.
In test [2] the test system is SVG p12, GBM8401 and GBM8901. As to the kind of experiment: MTT assay, normal cell versus tumor cells (categories 39-3 to 39-7). To be noted: tumor cell survival rate less than 80%; FIG. 5C.

For `CN(C)CCCSc1nc2ccc3c(c2[nH]1)C(=O)c1ccccc1C3=O` [f1-15, 2-(3-(dimethylamino)propylthio)-1H-anthra[1,2-d]imidazole-6,11-dione], the “Growth Percent, CCRF-CEM” value in the test on CCRF-CEM came to 8.49%. Further, the “Growth Percent, K-562” value with K-562 is recorded as −31.59%. Besides, in the test with SR, the “Growth Percent, SR” value is given as 3.09%. Moreover, the “Growth Percent, EKVX” value in the test on EKVX was 65.23%. Also, in the test with NCI-H226, the “Growth Percent, NCI-H226” value is 74.10%. In the test on NCI-H322M, the “Growth Percent, NCI-H322M” value turned out to be 70.75%. The “Growth Percent, NCI-H460” value with NCI-H460 is listed as 23.20%. Besides, in the test on COLO 205, the “Growth Percent, COLO 205” value was found to be 62.01%. In addition, the “Growth Percent, HCT-116” value with HCT-116 amounted to 27.58%. Besides, the “Growth Percent, HT29” value in the test with HT29 stood at 17.84%. The “Growth Percent, KM12” value with KM12 is 20.36%. Further, the “Growth Percent, SF-539” value in the test on SF-539 is on record as 57.50%. For the same molecule, the “Growth Percent, SNB-75” value in the test with SNB-75 came to 50.54%. The “Growth Percent, MDA-MB-435” value in the test with MDA-MB-435 is 72.18%. In the test on SK-MEL-5, the “Growth Percent, SK-MEL-5” value came out at 62.55%. Also, the “Growth Percent, IGROV1” value in the test with IGROV1 is 30.89%. In addition, the “Growth Percent, OVCAR-3” value with OVCAR-3 turned out to be 59.33%. Also, in the test with CAKI-1, the “Growth Percent, CAKI-1” value was −14.89%. In addition, in the test with TK-10, the “Growth Percent, TK-10” value came out at 31.68%. Moreover, in the test on MDA-MB-231/ATCC, the “Growth Percent, MDA-MB-231/ATCC” value is listed as 56.24%. For the same molecule, the “Growth Percent, HS 578T” value in the test on HS 578T is recorded as 69.32%. The “Growth Percent, BT-549” value in the test on BT-549 amounted to 75.75%. For the same molecule, the “Growth Percent, Mean” value in test [1] turned out to be 47.41%. For the same molecule, the “Cell survival rate (%) SVG p12” value in the test on SVG p12 was determined as 11 ± 6%.

As for `O=C1c2ccccc2C(=O)c2c1ccc1nc(S)[nH]c21` [f1-0, 2-Mercapto-1(3)H-anthra[1,2-d]imidazole-6,11-dione], the “Growth Percent, CCRF-CEM” value in the test on CCRF-CEM is reported as 61.91%. Further, the “Growth Percent, K-562” value in the test on K-562 is 108.55%. Moreover, the “Growth Percent, SR” value with SR amounted to 124.87%. For the same molecule, in the test on EKVX, the “Growth Percent, EKVX” value is recorded as 50.53%. For the same molecule, in the test on NCI-H226, the “Growth Percent, NCI-H226” value is listed as 83.74%. Moreover, the “Growth Percent, NCI-H322M” value in the test with NCI-H322M came out at 96.31%. Moreover, the “Growth Percent, NCI-H460” value in the test on NCI-H460 turned out to be 98.61%. Also, the “Growth Percent, COLO 205” value in the test on COLO 205 turned out to be 103.96%. The “Growth Percent, HCT-116” value in the test on HCT-116 is 96.31%. Further, in the test with HT29, the “Growth Percent, HT29” value stood at 103.79%. For the same molecule, the “Growth Percent, KM12” value with KM12 stood at 101.59%. Besides, the “Growth Percent, SF-539” value in the test with SF-539 amounted to 91.35%. For the same molecule, in the test with SNB-75, the “Growth Percent, SNB-75” value is on record as 100.90%. In the test on MDA-MB-435, the “Growth Percent, MDA-MB-435” value amounted to 114.02%. Further, the “Growth Percent, SK-MEL-5” value in the test on SK-MEL-5 was found to be 86.66%. In the test on IGROV1, the “Growth Percent, IGROV1” value is on record as 138.25%. The “Growth Percent, OVCAR-3” value in the test with OVCAR-3 came out at 86.94%. Further, in the test on CAKI-1, the “Growth Percent, CAKI-1” value was found to be 91.23%. In addition, the “Growth Percent, TK-10” value with TK-10 came to 111.74%. In the test on MDA-MB-231/ATCC, the “Growth Percent, MDA-MB-231/ATCC” value is 108.18%. Further, in the test on HS 578T, the “Growth Percent, HS 578T” value is recorded as 103.53%. In the test with BT-549, the “Growth Percent, BT-549” value is given as 114.30%. In addition, the “Growth Percent, MDA-MB-468” value in the test on MDA-MB-468 is reported as 87.69%. In addition, the “Growth Percent, Mean” value in test [1] is on record as 99.72%. Also, the “Cell survival rate (%) SVG p12” value in the test with SVG p12 was determined as 82 ± 5%.

Turning to `O=C1c2ccccc2C(=O)c2c1ccc1nc(SCCN3CCCC3)[nH]c21` [f1-11], the “Growth Percent, CCRF-CEM” value in the test on CCRF-CEM is given as −15.39%. For the same molecule, the “Growth Percent, K-562” value with K-562 was determined as 26.94%. The “Growth Percent, SR” value in the test with SR amounted to 20.25%. Moreover, the “Growth Percent, EKVX” value in the test on EKVX stood at 73.04%. In addition, the “Growth Percent, NCI-H226” value with NCI-H226 is given as 88.06%. Moreover, the “Growth Percent, NCI-H322M” value with NCI-H322M was 73.18%. Moreover, in the test with NCI-H460, the “Growth Percent, NCI-H460” value was determined as 34.08%. In the test with COLO 205, the “Growth Percent, COLO 205” value is 17.13%. For the same molecule, the “Growth Percent, HCT-116” value in the test on HCT-116 was found to be 38.81%. For the same molecule, the “Growth Percent, KM12” value in the test on KM12 worked out at 19.62%. For the same molecule, in the test on SF-539, the “Growth Percent, SF-539” value is reported as 62.25%. In the test with SNB-75, the “Growth Percent, SNB-75” value is 81.75%. In the test on MDA-MB-435, the “Growth Percent, MDA-MB-435” value turned out to be 66.47%. In the test on SK-MEL-5, the “Growth Percent, SK-MEL-5” value is on record as 78.52%. Also, in the test with IGROV1, the “Growth Percent, IGROV1” value is on record as 23.20%. For the same molecule, the “Growth Percent, TK-10” value in the test on TK-10 was 36.86%. Moreover, the “Growth Percent, MDA-MB-231/ATCC” value in the test with MDA-MB-231/ATCC came to 63.52%. In addition, the “Growth Percent, BT-549” value in the test with BT-549 is given as 78.62%. The “Growth Percent, MDA-MB-468” value in the test with MDA-MB-468 turned out to be 67.90%. In addition, in [1], the “Growth Percent, Mean” value was found to be 52.08%. Further, the “Cell survival rate (%) SVG p12” value in the test on SVG p12 amounted to 98 ± 1%. In addition, the “category 39-5: survival rate higher than 80% for normal cell SVG p12 and only inhibits growth of tumor cell GBM8901” value in test [2] is “in this category”.
